Results: PMC12907944, “Targeting RAD51-BRCA2 Interaction to Enhance Synthetic Lethality with Olaparib in Pancreatic Cancer: Development of a Novel Phenyl Furan-Quinoline-Carboxylic Acid Series” (ACS Medicinal Chemistry Letters, 2026)
In brackets after ≈: the same amount, converted by molar mass.

Experiments:
[1] = system: homologous recombination in BxPC-3 cells; experiment: HR Quick Assay (HR-QA); type: cell-based; conditions: Homo sapiens
[2] = system: BxPC-3 cells; experiment: cell viability (CellTiter-Glo), combination with olaparib, Interaction Index; type: cell-based, human; conditions: for Combination studies with olaparib: combination effect: BxPC-3 cells
[3] = system: RAD51 foci formation in BxPC-3 cells; experiment: RAD51 foci immunofluorescence after cisplatin; type: cell-based, human
[4] = kinetic solubility; type: physicochemical; conditions: PBS, aqueous buffer, kinetic from dmso stock
[5] = system: normal pancreatic epithelial H-6037 cells; experiment: cell viability, combination with olaparib; type: cell-based, human; conditions: 19/ola combination, 6-day
[6] = system: homologous recombination in HEK-293 cells; experiment: m-Clover Lamin A assay (mCl-HR); type: cell-based, human
[7] = system: γ-H2AX in BxPC-3 cells; experiment: γ-H2AX immunofluorescence; type: cell-based, human; conditions: BxPC-3, 72 h, 19 + ola combination
[8] = system: BxPC-3 3D spheroids; experiment: 3D spheroids cell viability (MTT) and volume; type: cell-based, human; conditions: BxPC-3 spheroids, 60 μM compound alone

In the case of `Cc1ccc2nc(-c3ccc(-c4ccccc4F)o3)cc(C(=O)O)c2c1` [Compound 8], the inhibition at 60 µM ([1]; BXPC-3, maximum inhibition, at 60 μM) is reported as 39%.

With `O=C(O)c1cc(-c2ccc(-c3ccccc3)o2)nc2ccc(O)cc12` [Compound 18] the inhibition at 20 µM ([1]; BXPC-3, maximum inhibition) was no more than 60%.

With `Nc1ccc2nc(-c3ccc(-c4ccccc4)o3)cc(C(=O)O)c2c1` [Compound 17] the inhibition at 20 µM ([1]; BXPC-3, maximum inhibition) was 77% and the “Combination studies with olaparib: combination effect” value (“Combination studies with olaparib” below) ([2]; 144 h) was “additive (a result ranging from 0.8 to 1.2 denotes an additive effect)”.

`N.N.[Cl][Pt][Cl]` [CPL, cisplatin, reference compound] showed an RAD51-labelled nuclei ([3]; BxPC-3, CPL alone (50 μM cisplatin)) of 56%.

In the case of `Cc1ccc2nc(-c3ccc(-c4ccccc4C(=O)O)o3)cc(C(=O)O)c2c1` [Compound 1], the inhibition at 100 µM ([1]; BXPC-3, at 100 μM) is reported as 4%, the inhibition at 50 µM ([1]; BXPC-3, maximum inhibition, at 50 μM) is reported as 35% and the “Combination studies with olaparib” value ([2]; 144 h) is reported as “additive (a result ranging from 0.8 to 1.2 denotes an additive effect)”. It also gave a solubility kinetic [4] of 234 ± 9 µM (≈ 87.4 µg/mL).

With `Cc1ccc2nc(-c3ccc(-c4ccccc4)s3)cc(C(=O)O)c2c1` [Compound 20] the inhibition at 20 µM ([1]; BXPC-3, maximum inhibition) was 89%, the cell viability reduction ([2]; BxPC-3, 5 µM compound in combination with olaparib, 144 h) was “≈ 40%” and the “Combination studies with olaparib” value ([2]; 144 h) was “additive (a result ranging from 0.8 to 1.2 denotes an additive effect)”.

In the case of `Cc1ccc2nc(-c3ccc(-c4ccccc4)o3)cc(C(=O)O)c2c1` [Compound 4], the inhibition at 80 µM ([1]; BXPC-3, maximum inhibition) is reported as 63% and the “Combination studies with olaparib” value ([2]; 144 h) is reported as “additive (a result ranging from 0.8 to 1.2 denotes an additive effect)”.

For `COc1ccc2nc(-c3ccc(-c4ccccc4)o3)cc(C(=O)O)c2c1` [Compound 19], the inhibition at 80 µM ([1]; BXPC-3, maximum inhibition) was 81%, the IC50 ([1]; multiple-dose HR-QA) was 21.7 ± 1.81 µM and the “Combination w/ola in BxPC-3 cells” value ([2]; BxPC-3, Table S2) was “Synergism”. For the same molecule, the “effect on cell viability of normal cells” value [5] was “no significant effect”, the solubility kinetic [4] was greater than 250 µM and the mClover-positive cells ([6]; HEK-293, 40 μM) was roughly 4%. It also gave an inhibition at 40 µM ([6]; Homo sapiens, HEK293, HEK-293, 40 μM) of roughly 74%, an RAD51-labelled nuclei ([3]; BxPC-3, 19 and CPL (50 μM cisplatin)) of 22% and a γ-H2AX-labelled nuclei [7] greater than 40%. For the same molecule, the “impact on spheroid volume” value [8] was “no significant impact”.

With `CCc1ccc2nc(-c3ccc(-c4ccccc4)o3)cc(C(=O)O)c2c1` [Compound 16] the inhibition at 80 µM ([1]; BXPC-3, maximum inhibition) was 76%, the cell viability reduction ([2]; BxPC-3, compound alone at 40 µM) was 40% and the “Combination studies with olaparib” value ([2]; 144 h) was “additive (a result ranging from 0.8 to 1.2 denotes an additive effect)”.
